# Test results published in article PMC5527309, “Curative Treatment of Severe Gram-Negative Bacterial Infections by a New Class of Antibiotics Targeting LpxC” (mBio, 2017).
# Read-outs that look alike come from different tables or passages of the source.
# Assays:
# Y. pestis CO92 = assay type: cell-based, Yersinia pestis
# E. coli = assay: microbe, parasite or virus in culture; assay type: cell-based, Escherichia coli; conditions: for MIC: read-out: MIC against E. coli
# Y. pestis [1] = conditions: mouse, in vivo
# [2] = Microsomal stability analysis; conditions: mouse, liver microsomes, pH 7.4
# [3] = In vivo pharmacokinetics, single intravenous dose; conditions: for half-life: female, OF-1, mouse, plasma, iv
# OF-1 female mice = assay: Tolerability study, 5-day intravenous regimen; conditions: mouse
# Shigella spp. = assay: microbe, parasite or virus in culture; assay type: cell-based
# Enterobacter spp. = assay: microbe, parasite or virus in culture; assay type: cell-based
# M. morganii = assay: microbe, parasite or virus in culture; assay type: cell-based, Morganella morganii
# Yersinia spp. = assay: microbe, parasite or virus in culture; assay type: cell-based, Y. enterocolitica and Y. pseudotuberculosis
# A. baumannii = assay: microbe, parasite or virus in culture; assay type: cell-based, Acinetobacter baumannii
# C. freundii = assay: microbe, parasite or virus in culture; assay type: cell-based, Citrobacter freundii
# C. koseri = assay: microbe, parasite or virus in culture; assay type: cell-based, Citrobacter koseri
# S. marcescens = assay: microbe, parasite or virus in culture; assay type: cell-based, Serratia marcescens
# P. mirabilis = assay: microbe, parasite or virus in culture; assay type: cell-based, Proteus mirabilis
# Salmonella spp = assay: microbe, parasite or virus in culture; assay type: cell-based, Salmonella enterica
# Enterobacteriaceae = assay: organism not typed; assay type: cell-based
# K. pneumoniae = assay: microbe, parasite or virus in culture; assay type: cell-based, Klebsiella pneumoniae
# P. aeruginosa = assay: microbe, parasite or virus in culture; assay type: cell-based, Pseudomonas aeruginosa
# Y. pestis [4] = conditions: cited from earlier work
compound,measurement,setting,value
CC(O)(C(F)F)C(NC(=O)c1ccc(C#CC#Cc2ccc(N)cc2)cc1)C(=O)NO (stereo not shown) [LPC-058],type of antibacterial effect (kill curve),Y. pestis CO92,bacteriostatic effect
same,MIC,E. coli; Escherichia coli,0.025 µg/mL
same,"colonization of the lymph nodes, spleen, and blood relative to nontreated controls","Y. pestis [1]; iv, 10 mg/kg",significantly (P < 0.02) lower colonization
same,survival rate,"Y. pestis [1]; iv, 10 mg/kg",≥ 80%
same,half-life at 1 µM,[2],95 min
same,microsomal CLint at 1 µM,[2],24 µL/min/mg
same,AUC greater than AUC of LPC-069,"[3]; LPC-058 single dose 20 mg/kg versus LPC-069 single dose 40 mg/kg, mouse",approximately 10 fold
same,half-life,[3]; 20 mg/kg,53 min
same,tissue distribution volume,"[3]; mouse, single intravenous dose of 20 mg/kg",1.1 L/kg
same,renal function (blood urea nitrogen) and hepatic function,"OF-1 female mice; 10 mg/kg q8h, 5 days",normal
same,tissue damage,"OF-1 female mice; 10 mg/kg q8h, 5 days",no tissue damage was detected
same,"histology (hematoxylin-eosin, 5-µm sections)","OF-1 female mice; 40 mg/kg q12h, 5 days",accumulation of polymorphonuclear cells in the lung and large intestine
same,liver toxicity (blood alanine aminotransferase level),"OF-1 female mice; 40 mg/kg q12h, 5 days",liver toxicity
same,plasma protein levels at the end of the 5-day regimen,OF-1 female mice; 5-day regimen,Low plasma protein levels
same,appearance of diarrhea after the first injection,"OF-1 female mice; 5-day regimen, regardless of regimen (10 mg/kg q8h, 20 mg/kg q12h, 40 mg/kg q12h)",3 days
CC(O)(C(F)F)C(NC(=O)c1ccc(C#Cc2ccc(CN3CCOCC3)cc2)cc1)C(=O)NO (stereo not shown) [LPC-069],MIC Range,Shigella spp.,0.025 to 0.2 µg/mL
same,MIC50,Shigella spp.; Shigella,0.05 µg/mL
same,MIC90,Shigella spp.; Shigella,0.1 µg/mL
same,type of antibacterial effect (kill curve),Y. pestis CO92,bacteriostatic effect
same,MIC Range,Enterobacter spp.,0.1 to 1.6 µg/mL
same,MIC50,Enterobacter spp.; Enterobacter,0.2 µg/mL
same,MIC90,Enterobacter spp.; Enterobacter,0.4 µg/mL
same,MIC Range,M. morganii,0.2 to 1.6 µg/mL
same,MIC50,M. morganii; Morganella morganii,0.2 µg/mL
same,MIC90,M. morganii; Morganella morganii,0.8 µg/mL
same,MIC Range,Yersinia spp.,0.2 to 0.8 µg/mL
same,MIC50,Yersinia spp.; Yersinia,0.4 µg/mL
same,MIC90,Yersinia spp.; Yersinia,0.8 µg/mL
same,MIC90,A. baumannii,3.2 µg/mL
same,MIC50,A. baumannii; Acinetobacter baumannii,0.8 µg/mL
same,MIC90,A. baumannii; Acinetobacter baumannii,3.2 µg/mL
same,MIC Range,C. freundii,0.2 to 0.4 µg/mL
same,MIC50,C. freundii; Citrobacter freundii,0.2 µg/mL
same,MIC90,C. freundii; Citrobacter freundii,0.4 µg/mL
same,MIC Range,C. koseri,0.1 to 1.6 µg/mL
same,MIC50,C. koseri; Citrobacter koseri,0.4 µg/mL
same,MIC90,C. koseri; Citrobacter koseri,0.4 µg/mL
same,MIC Range,S. marcescens,0.1 to 0.4 µg/mL
same,MIC50,S. marcescens; Serratia marcescens,0.2 µg/mL
same,MIC90,S. marcescens; Serratia marcescens,0.2 µg/mL
same,MIC Range,P. mirabilis,0.2 to 0.8 µg/mL
same,MIC50,P. mirabilis; Proteus mirabilis,0.2 µg/mL
same,MIC90,P. mirabilis; Proteus mirabilis,0.4 µg/mL
same,MIC Range,E. coli,0.05 to 0.4 µg/mL
same,MIC50,E. coli; Escherichia coli,0.1 µg/mL
same,MIC90,E. coli; Escherichia coli,0.2 µg/mL
same,MIC,E. coli; Escherichia coli,0.1 µg/mL
same,survivors at day 21 postchallenge,Y. pestis [1],15 out of 15
same,"colonization of the lymph nodes, spleen, and blood relative to nontreated controls","Y. pestis [1]; iv, 40 mg/kg",significantly (P < 0.02) lower colonization
same,survival rate,"Y. pestis [1]; iv, 40 mg/kg",≥ 80%
same,"bacterial load in skin, lymph nodes, spleen, and blood of survivors","Y. pestis [1]; iv, 200 mg/kg",sterile
same,posttreatment relapse,"Y. pestis [1]; iv, 200 mg/kg",only one of the 15 animals
same,half-life at 1 µM,[2],44 min
same,microsomal CLint at 1 µM,[2],52 µL/min/mg
same,half-life,[3]; 40 mg/kg,10 min
same,distribution volume,"[3]; mouse, single intravenous 40-mg/kg dose",3.8 L/kg
same,MIC Range,Salmonella spp,0.2 to 0.8 µg/mL
same,MIC50,Salmonella spp; Salmonella,0.4 µg/mL
same,MIC90,Salmonella spp; Salmonella,0.4 µg/mL
same,MIC90,Enterobacteriaceae,0.2 to 0.8 µg/mL
same,diarrhea and detectable toxicity,"OF-1 female mice; 5 days, any of the regimens tested (including 200 mg/kg q8h)",did not elicit any diarrhea or detectable toxicity
same,MIC Range,K. pneumoniae,0.2 to 0.8 µg/mL
same,MIC50,K. pneumoniae; Klebsiella pneumoniae,0.4 µg/mL
same,MIC90,K. pneumoniae; Klebsiella pneumoniae,0.8 µg/mL
same,MIC90,P. aeruginosa,3.2 µg/mL
same,MIC Range,P. aeruginosa,0.2 to 3.2 µg/mL
same,more active than ceftazidime-avibactam,P. aeruginosa,4- to 8 fold
same,MIC50,P. aeruginosa; Pseudomonas aeruginosa,1.6 µg/mL
same,MIC90,P. aeruginosa; Pseudomonas aeruginosa,3.2 µg/mL
O=C(O)c1cn(C2CC2)c2cc(N3CCNCC3)c(F)cc2c1=O [ciprofloxacin],MIC,Y. pestis [4],0.03 µg/mL
"C[C@H]1c2cccc(O)c2C(=O)C2=C(O)[C@]3(O)C(=O)C(C(N)=O)=C(O)[C@@H](N(C)C)[C@@H]3[C@@H](O)[C@@H]21 [doxycycline, reference compound]",survivors at day 21 postchallenge,Y. pestis [1],14 out of 15
same,"bacterial load in skin, lymph nodes, spleen, and blood of survivors","Y. pestis [1]; iv, 50 mg/kg",sterile
same,MIC,Y. pestis [4],0.5 µg/mL
